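Test compounds were applied to cells in 96-well plates for 48 hours at 5 doses. GI50 = concentration required for 50% inhibition of growth. TGI is the concentration that stops growth completely.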
Tests used:
Test in all cases: NCI anticancer screen, dose series, 48 h
[1] = test system: SF-539 CNS
[2] = test system: A549 NSCLC
[3] = test system: TK-10 renal
[4] = test system: T-47D breast
[5] = test system: SF-268 CNS
[6] = test system: HCT-116 colon
[7] = test system: ACHN renal
[8] = test system: OVCAR-5 ovarian
[9] = test system: HS 578T breast
[10] = test system: HOP-62 NSCLC
[11] = test system: BT-549 breast
[12] = test system: DU-145 prostate
[13] = test system: NCI/ADR-RES ovarian
[14] = test system: MDA-MB-468 breast
[15] = test system: NCI-H460 lung
[16] = test system: K-562 leukemia
[17] = test system: MALME-3M melanoma
[18] = test system: NCI-H522 lung
[19] = test system: HL-60(TB) leukemia
[20] = test system: MDA-MB-435
[21] = test system: LOX IMVI melanoma
[22] = test system: MOLT-4 leukemia
[23] = test system: SW-620 colon
[24] = test system: A498 renal
[25] = test system: EKVX NSCLC
[26] = test system: UACC-257 melanoma
[27] = test system: RPMI-8226 leukemia
[28] = test system: SNB-19 CNS
[29] = test system: CAKI-1 renal
[30] = test system: RXF 393 renal
[31] = test system: OVCAR-3 ovarian
[32] = test system: PC-3 prostate
[33] = test system: NCI-H23 lung
[34] = test system: HOP-92 NSCLC
[35] = test system: U251 CNS
[36] = test system: SK-MEL-28 melanoma
[37] = test system: CCRF-CEM leukemia
[38] = test system: SR leukemia
[39] = test system: MCF7 breast
[40] = test system: M14 melanoma
[41] = test system: COLO 205 colon
[42] = test system: NCI-H226 lung
[43] = test system: UACC-62 melanoma
[44] = test system: SK-OV-3 ovarian
[45] = test system: HCT-15 colon
[46] = test system: 786-0 renal
[47] = test system: SN12C renal
[48] = test system: HCC-2998 colon
[49] = test system: HT29 colon
[50] = test system: SF-295 CNS
[51] = test system: KM12 colon
[52] = test system: SK-MEL-5 melanoma
[53] = test system: IGROV1 ovarian
[54] = test system: OVCAR-8 ovarian
[55] = test system: OVCAR-4 ovarian

`COc1c(B(O)O)cc(F)cc1-c1nc2c(F)cc3[nH]ncc3c2c2c1CCCC2` gave a GI50 [1] of 0.596 µM, a TGI [1] of 12.7 µM and a GI50 [2] of 3.53 µM. For the same molecule, the TGI [2] was 86.5 µM, the GI50 [3] was 0.275 µM and the TGI [3] was > 100 µM. The GI50 [4] was 12.5 µM, the TGI [4] was 61.9 µM and the GI50 [5] was 3.05 µM. The TGI [5] was 81.1 µM, the GI50 [6] was 2.1 µM and the TGI [6] was 36.7 µM. It also gave a GI50 [7] of 1.38 µM, a TGI [7] of 42.4 µM and a GI50 [8] of 5.77 µM. The TGI [8] was 66 µM, the GI50 [9] was 0.293 µM and the TGI [9] was 63.9 µM. The GI50 [10] was 2.95 µM, the TGI [10] was 54 µM and the GI50 [11] was 0.0845 µM. It also gave a TGI [11] of 6.85 µM, a GI50 [12] of 6.53 µM and a TGI [12] of 56.4 µM. For the same molecule, the GI50 [13] was 8.18 µM, the TGI [13] was > 100 µM and the GI50 [14] was 11.7 µM. The TGI [14] was 39.9 µM, the GI50 [15] was 4.1 µM and the TGI [15] was 28.9 µM. For the same molecule, the GI50 [16] was 19.1 µM, the TGI [16] was > 100 µM and the GI50 [17] was 14.8 µM. For the same molecule, the TGI [17] was 34.2 µM, the GI50 [18] was 3.66 µM and the TGI [18] was 43.6 µM. The GI50 [19] was 2.42 µM, the TGI [19] was 10.9 µM and the GI50 [20] was 13.8 µM. For the same molecule, the TGI [20] was 34.2 µM, the GI50 [21] was 2.43 µM and the TGI [21] was 16.5 µM. The GI50 [22] was 2.75 µM, the TGI [22] was 30.9 µM and the GI50 [23] was 4.15 µM. The TGI [23] was > 100 µM, the GI50 [24] was 12.8 µM and the TGI [24] was 46.5 µM. It also gave a GI50 [25] of 5.04 µM, a TGI [25] of 63.4 µM and a GI50 [26] of 14.6 µM. The TGI [26] was 62.8 µM, the GI50 [27] was 2.14 µM and the TGI [27] was 19.6 µM. For the same molecule, the GI50 [28] was 3.46 µM, the TGI [28] was 66.4 µM and the GI50 [29] was 0.158 µM. For the same molecule, the TGI [29] was 1.58 µM, the GI50 [30] was 0.0887 µM and the TGI [30] was 1.9 µM. It also gave a GI50 [31] of 15.5 µM, a TGI [31] of 72.6 µM and a GI50 [32] of 4.9 µM. The TGI [32] was > 100 µM, the GI50 [33] was 7.03 µM and the TGI [33] was 31.3 µM. It also gave a GI50 [34] of 0.0199 µM, a TGI [34] of 86.5 µM and a GI50 [35] of 5.34 µM. The TGI [35] was > 100 µM, the GI50 [36] was 13.1 µM and the TGI [36] was 38.4 µM. It also gave a GI50 [37] of 3.07 µM, a TGI [37] of 80.3 µM and a GI50 [38] of 1.4 µM. It also gave a TGI [38] of 11.4 µM, a GI50 [39] of 3.83 µM and a TGI [39] of 23.1 µM. The GI50 [40] was 16.4 µM, the TGI [40] was 35.4 µM and the GI50 [41] was 4.85 µM. For the same molecule, the TGI [41] was 19.3 µM, the GI50 [42] was 3.3 µM and the TGI [42] was 72.8 µM. For the same molecule, the GI50 [43] was 4.09 µM, the TGI [43] was 17.1 µM and the GI50 [44] was 4.1 µM. The TGI [44] was 77.2 µM, the GI50 [45] was 4.45 µM and the TGI [45] was 44.5 µM. For the same molecule, the GI50 [46] was 2.02 µM, the TGI [46] was 18.7 µM and the GI50 [47] was 2.9 µM. For the same molecule, the TGI [47] was 62.2 µM, the GI50 [48] was 11.8 µM and the TGI [48] was 40.1 µM. The GI50 [49] was 14.6 µM, the TGI [49] was > 100 µM and the GI50 [50] was 10.7 µM. For the same molecule, the TGI [50] was 40.1 µM, the GI50 [51] was 4.47 µM and the TGI [51] was 31.6 µM. The GI50 [52] was 14.4 µM, the TGI [52] was 33.2 µM and the GI50 [53] was 7.75 µM. The TGI [53] was 45.9 µM, the GI50 [54] was 4.82 µM and the TGI [54] was > 100 µM. It also gave a GI50 [55] of 14.9 µM and a TGI [55] of 59.4 µM.

Source: PubChem BioAssay (NCI)
